Measurements: patent US20200030278A1, “PHARMACEUTICAL COMPOSITIONS OF METAP-2 INHIBITORS” (Zafgen, Inc., priority 2017, published 2020)
Values after ≈ are worked out from the molar mass of the structure shown. Read-outs that look alike come from different tables or passages of the source.

What was measured:
[1] = Protein binding in human plasma (dialysis); format: in vitro ADME; settings: Human Plasma, 120 nM; read-out: % Bound (Mean) (converted)
[2] = logD7.4 (physicochemical properties); settings: pH 7.4
[3] = Protein binding in dog plasma (dialysis); format: in vitro ADME; settings: Dog Plasma, read-out: % Bound (Mean) (converted)
[4] = Hepatocyte incubation, metabolic profile, rat; format: in vitro ADME
[5] = Pharmacokinetics after subcutaneous administration in rats; format: in vivo; settings: plasma; Rat, SC, 6 mg/kg
Experimental: (§1) Animal experiments were performed in accordance with the Guide for the Care and Use of Laboratory Animals as adopted and promulgated by the U.S. National Institutes of Health or local equivalent and were approved by the Institution's Animal Care and Use Committee or local equivalent. Unless described otherwise, animals (mouse, rat, and dog studies) were maintained under standard conditions (12-hour light/dark cycle and approximately 21±4° C. and 55±15% relative humidity), and food (Rodent pellet chow [Research Diets, Brunswick N.J., or similar] or canine pellet [Certified Dog Diet 2021C, Harlan Teklad Diets, Madison, Wis.] or canned [i.e., Cesar® Mars Petcare, Victoria, Australia]) and water were available ad libitum. Unless described otherwise, drug formulations were administered s.c. daily (efficacy studies) or every 3 days (Q3D; safety studies).
(§2) Assessment of differences in pharmacokinetics following subcutaneous administration reflect both differences in the pharmacokinetic properties of the compounds and differences in pharmaceutical factors that affect absorption of the formulations from the injection sites.

[6] = Pharmacokinetics after subcutaneous administration in rabbits; format: in vivo, Rabbit
Source text: as §2

[7] = Protein binding in rat plasma (dialysis); format: in vitro ADME; settings: Rat Plasma, read-out: % Bound (Mean) (converted)
[8] = Pharmacokinetics after intravenous administration in rats; settings: in vivo, Rat, IV Bolus, 3 mg/kg
Experimental: as §1

[9] = Hepatocyte incubation, metabolic profile, human; format: in vitro ADME
[10] = Pharmacokinetics after intravenous administration in dogs; settings: in vivo, Dog, IV Bolus, 0.142 mg/kg
Experimental: as §1

[11] = Hepatocyte incubation, metabolic profile, dog; format: in vitro ADME
[12] = Pharmacokinetics after subcutaneous administration in humans; format: in vivo, Human; settings: Human, SC, 2 mg
Source text: as §2

[13] = Duration of plasma exposure after subcutaneous dosing, summary over species; format: in vivo, rat, dog, rabbit, human
[14] = Protein binding in mouse plasma (dialysis); format: in vitro ADME; settings: read-out: % Bound (Mean) (converted)
[15] = pKa (physicochemical properties)
[16] = Pharmacokinetics after subcutaneous administration in dogs; format: in vivo; settings: beagle, plasma, Dog, SC, 0.6 mg/kg
Experimental: as §1, §2

[17] = Toxicology study in the rat, s.c. Q3D for 28 days; format: in vivo, Sprague Dawley rats; settings: for NOAEL at 28 days / Cmax / AUC(0-t): Sprague Dawley, rat, in vivo, sc; for NOAEL at 28 days / Mortality/early euthanasia: s.c. Q3D, 4 weeks; for AUC(0-t): read-out: AUC0-t at NOAEL; for Mortality/early euthanasia: rats
Experimental: Male and female Sprague Dawley rats 9-10 weeks of age (Envigo RMS, Inc., Indianapolis, Ind. or Orient Bio Inc., Gyeonggi-do, South Korea) were individually housed at the testing facility. […] Animals were allocated to treatment groups based on body weight, and body weight and food consumption were recorded weekly. […] At necropsy, macroscopic pathologic findings were recorded, sperm motility and morphology were determined, selected organs were weighed, and selected tissues were collected for microscopic examination.

[18] = Pharmacokinetic study in dogs, single s.c. injection (Example 3); settings: both, beagle, dog, plasma, sc, 0.6 mg/kg
Experimental: Male and female beagle dogs of 9 to 11 months of age for PK characterization were individually housed at the testing facility Approximately 325 g of pelleted food was provided daily. […] Animals were observed twice daily for signs of ill health, morbidity, mortality, injury, and viability, and detailed clinical observations were conducted daily (including urine/fecal examination and hands-on examination). Food was weighed daily, and body weights were recorded at least weekly.
Samples were collected in tubes containing lithium heparin and processed for plasma by centrifugation (10 minutes at 3000 rpm). Supernatant was removed and stored frozen (−70° C.) until processed (BASi, West Lafayette, Ind.). Plasma drug concentration data were used to calculate PK parameters for individual concentration data using noncompartmental PK methods in Watson™ version 7.3.0.01 (Thermo Fisher Scientific, Inc., Waltham, Mass.).

[19] = Major metabolites in rats dosed SC; format: in vivo
Solubility (pH 7) = format: physicochemical; settings: pH 7, aqueous buffer
[20] = female, 2 mg/kg, Day 1, female rats, NOAEL 2 mg/kg
[21] = female, 2 mg/kg, Day 31, female rats, NOAEL 2 mg/kg
[22] = male, 0.6 mg/kg, Day 1, male rats, NOAEL 0.6 mg/kg
[23] = male, 0.6 mg/kg, Day 31, male rats, NOAEL 0.6 mg/kg

CO[C@@H]1[C@H](OC(=O)/C=C/c2ccc(OCCN(C)C)cc2)CC[C@]2(CO2)[C@H]1[C@@]1(C)O[C@@H]1CC=C(C)C [beloranib, reference compound]
fraction unbound at 120 nM [1]: 0.0544
logD7.4 [2]: 2.72
fraction unbound at 480 nM ([3]; 480 nM): 0.045
fraction unbound at 1000 nM ([3]; 1000 nM): 0.059
metabolic profile / predominant pathway in hepatocytes [4]: glutathione (GSH) conjugation pathways being predominant
AUC(0-t) [5]: 412 ng·h/mL
Cmax [5]: 270 ng/mL
Tmax [5]: 0.5 h
half-life [5]: 1.8 h
AUC(0-t) ([6]; plasma, Rabbit, SC, 1 mg/kg): 222 ± 9 ng·h/mL
Cmax ([6]; plasma, Rabbit, SC, 1 mg/kg): 52 ± 4.1 ng/mL
Tmax ([6]; plasma, Rabbit, SC, 1 mg/kg): 1.7 ± 0.6 h
half-life ([6]; plasma, Rabbit, SC, 1 mg/kg): 1.7 ± 0.3 h
plasma concentration at 8 hours after dosing ([6]; rabbit, subcutaneous): still quantifiable
fraction unbound at 60 nM ([7]; 60 nM): 0.0285
fraction unbound at 120 nM ([7]; 120 nM): 0.055
fraction unbound at 240 nM ([7]; 240 nM): 0.0415
fraction unbound at 480 nM ([7]; 480 nM): 0.0326
fraction unbound at 1000 nM ([7]; 1000 nM): 0.0434
fraction unbound ([7]; All concentrations): 0.0402
clearance [8]: 113 mL/min/kg
half-life [8]: 1.05 ± 0.23 h
Vd ([8]; read-out: Vdss): 5.08 ± 0.29 L/kg
metabolic profile / predominant pathway in hepatocytes [9]: glutathione (GSH) conjugation pathways being predominant
clearance [10]: 33.3 mL/min/kg
half-life [10]: 2.9 ± 0.29 h
Vd ([10]; read-out: Vdss): 5.07 ± 0.23 L/kg
metabolic profile / predominant pathway in hepatocytes [11]: glutathione (GSH) conjugation pathways being predominant
kel [12]: 0.0885 ± 0.0266 h⁻¹
AUC(0-inf) ([12]; plasma): 5.44 ± 1.81 ng·h/mL
half-life ([12]; plasma): 8.44 ± 2.49 h
Cmax ([12]; plasma, read-out: Cmax): 1 ± 1.1 ng/mL
Tmax ([12]; plasma, read-out: Tmax): 1.58 ± 1.28 h
interval between doses with plasma concentrations at background / minimal exposure ([13]; dosing once every 3 days in animals and twice a week in humans): approximately 48 hours
plasma concentration at 24 hours after dosing ([13]; subcutaneous, rat, dog, and human): quantifiable
fraction unbound at 60 nM ([14]; 60 nM): 0.0181
fraction unbound at 120 nM ([14]; 120 nM): 0.0191
fraction unbound at 240 nM ([14]; 240 nM): 0.0259
fraction unbound at 480 nM ([14]; 480 nM): 0.0222
fraction unbound at 1000 nM ([14]; 1000 nM): 0.0212
fraction unbound ([14]; All concentrations): 0.0213
pKa [15]: 9.4
AUC(0-t) [16]: 182 ± 73 ng·h/mL
Cmax [16]: 16.6 ± 12.3 ng/mL
Tmax [16]: 3.5 ± 1 h
half-life ([16]; N = 1): 7.84 h
NOAEL at 28 days ([17]; female rats, read-out: NOAEL (F)): 2 mg/kg
NOAEL at 28 days ([17]; male rats, read-out: NOAEL): 0.6 mg/kg
Cmax [17, 20]: 28.5 ng/mL
AUC(0-t) [17, 20]: 96.9 ng·h/mL
Cmax [17, 21]: 19.2 ng/mL
AUC(0-t) [17, 21]: 56.7 ng·h/mL
Cmax [17, 22]: 19.2 ng/mL
AUC(0-t) [17, 22]: 36.8 ng·h/mL
Cmax [17, 23]: 8.17 ng/mL
AUC(0-t) [17, 23]: 29 ng·h/mL
Mortality/early euthanasia [17]: mortality was noted by Days 16-24
Mortality/early euthanasia ([17]; listed as Beloranib): 4/15 males in the 6 mg/kg dose
half-life [18]: 9.3 h
pathway giving the major metabolites observed [19]: GSH conjugation and subsequent metabolic degradation of the GSH conjugates
solubility (Solubility (pH 7)): 300 µg/mL (≈ 600 µM)
